PubChem BioAssay (NCI)
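Dose response: 5 concentrations. Exposure: 48 h. Format: 96-well plates. Endpoint: linear interpolation; highest concentration if not reached. The concentration for 50% growth inhibition is given as GI50. TGI denotes the concentration required for complete inhibition of growth.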

Assays:
Assay in all cases: inhibition of tumour cell growth, NCI panel, 48 h
786-0 renal = test system: 786-0 renal
A498 renal = test system: A498 renal
A549 NSCLC = test system: A549 NSCLC
ACHN renal = test system: ACHN renal
BT-549 breast = test system: BT-549 breast
CAKI-1 renal = test system: CAKI-1 renal
CCRF-CEM leukemia = test system: CCRF-CEM leukemia
COLO 205 colon = test system: COLO 205 colon
DU-145 prostate = test system: DU-145 prostate
EKVX NSCLC = test system: EKVX NSCLC
HCC-2998 colon = test system: HCC-2998 colon
HCT-116 colon = test system: HCT-116 colon
HCT-15 colon = test system: HCT-15 colon
HL-60(TB) leukemia = test system: HL-60(TB) leukemia
HOP-62 NSCLC = test system: HOP-62 NSCLC
HOP-92 NSCLC = test system: HOP-92 NSCLC
HS 578T breast = test system: HS 578T breast
HT29 colon = test system: HT29 colon
IGROV1 ovarian = test system: IGROV1 ovarian
K-562 leukemia = test system: K-562 leukemia
KM12 colon = test system: KM12 colon
M14 melanoma = test system: M14 melanoma
MALME-3M melanoma = test system: MALME-3M melanoma
MCF7 breast = test system: MCF7 breast
MDA-MB-231 breast = test system: MDA-MB-231 breast
MDA-MB-435 = test system: MDA-MB-435
MOLT-4 leukemia = test system: MOLT-4 leukemia
NCI-H226 lung = test system: NCI-H226 lung
NCI-H23 lung = test system: NCI-H23 lung
NCI-H460 lung = test system: NCI-H460 lung
NCI-H522 lung = test system: NCI-H522 lung
NCI/ADR-RES ovarian = test system: NCI/ADR-RES ovarian
OVCAR-4 ovarian = test system: OVCAR-4 ovarian
OVCAR-5 ovarian = test system: OVCAR-5 ovarian
OVCAR-8 ovarian = test system: OVCAR-8 ovarian
PC-3 prostate = test system: PC-3 prostate
RPMI-8226 leukemia = test system: RPMI-8226 leukemia
RXF 393 renal = test system: RXF 393 renal
SF-268 CNS = test system: SF-268 CNS
SF-295 CNS = test system: SF-295 CNS
SF-539 CNS = test system: SF-539 CNS
SK-MEL-2 melanoma = test system: SK-MEL-2 melanoma
SK-MEL-28 melanoma = test system: SK-MEL-28 melanoma
SK-MEL-5 melanoma = test system: SK-MEL-5 melanoma
SK-OV-3 ovarian = test system: SK-OV-3 ovarian
SN12C renal = test system: SN12C renal
SNB-19 CNS = test system: SNB-19 CNS
SNB-75 CNS = test system: SNB-75 CNS
SR leukemia = test system: SR leukemia
SW-620 colon = test system: SW-620 colon
T-47D breast = test system: T-47D breast
TK-10 renal = test system: TK-10 renal
U251 CNS = test system: U251 CNS
UACC-257 melanoma = test system: UACC-257 melanoma
UACC-62 melanoma = test system: UACC-62 melanoma
UO-31 renal = test system: UO-31 renal
LOX IMVI melanoma = test system: LOX IMVI melanoma

`O=C(CCC(=O)N1CCOCC1)OCCCCCCSc1ccc([N+](=O)[O-])c2nonc12` was tested, and the GI50 (786-0 renal) was 1400 nM, the TGI (786-0 renal) was 4.15 µM and the GI50 (A498 renal) was 1850 nM. For the same compound, the TGI (A498 renal) was 4.26 µM, the GI50 (A549 NSCLC) was 2900 nM and the TGI (A549 NSCLC) was 12 µM. The GI50 (ACHN renal) was 472 nM, the TGI (ACHN renal) was 1680 nM and the GI50 (BT-549 breast) was 939 nM. The TGI (BT-549 breast) was 2170 nM, the GI50 (CAKI-1 renal) was 1520 nM and the TGI (CAKI-1 renal) was 3.95 µM. It also gave a GI50 (CCRF-CEM leukemia) of 284 nM, a TGI (CCRF-CEM leukemia) of 3.85 µM and a GI50 (COLO 205 colon) of 1890 nM. It also gave a TGI (COLO 205 colon) of 4.59 µM, a GI50 (DU-145 prostate) of 1400 nM and a TGI (DU-145 prostate) of 2710 nM. For the same compound, the GI50 (EKVX NSCLC) was 1550 nM, the TGI (EKVX NSCLC) was 3.26 µM and the GI50 (HCC-2998 colon) was 1680 nM. It also gave a TGI (HCC-2998 colon) of 3.16 µM, a GI50 (HCT-116 colon) of 410 nM and a TGI (HCT-116 colon) of 1670 nM. For the same compound, the GI50 (HCT-15 colon) was 267 nM, the TGI (HCT-15 colon) was 1120 nM and the GI50 (HL-60(TB) leukemia) was 313 nM. The TGI (HL-60(TB) leukemia) was 1620 nM, the GI50 (HOP-62 NSCLC) was 1740 nM and the TGI (HOP-62 NSCLC) was 4.45 µM. For the same compound, the GI50 (HOP-92 NSCLC) was 1240 nM, the TGI (HOP-92 NSCLC) was 2830 nM and the GI50 (HS 578T breast) was 1690 nM. It also gave a TGI (HS 578T breast) of 5.99 µM, a GI50 (HT29 colon) of 1010 nM and a TGI (HT29 colon) of 4.27 µM. It also gave a GI50 (IGROV1 ovarian) of 1010 nM, a TGI (IGROV1 ovarian) of 2240 nM and a GI50 (K-562 leukemia) of 259 nM. The TGI (K-562 leukemia) was over 100 µM, the GI50 (KM12 colon) was 2700 nM and the TGI (KM12 colon) was 7.77 µM. It also gave a GI50 (M14 melanoma) of 1320 nM, a TGI (M14 melanoma) of 2890 nM and a GI50 (MALME-3M melanoma) of 1150 nM. The TGI (MALME-3M melanoma) was 2510 nM, the GI50 (MCF7 breast) was 334 nM and the TGI (MCF7 breast) was 1920 nM. It also gave a GI50 (MDA-MB-231 breast) of 1390 nM, a TGI (MDA-MB-231 breast) of 3.08 µM and a GI50 (MDA-MB-435) of 1160 nM. It also gave a TGI (MDA-MB-435) of 2500 nM, a GI50 (MOLT-4 leukemia) of 410 nM and a TGI (MOLT-4 leukemia) of 3.49 µM. It also gave a GI50 (NCI-H226 lung) of 1440 nM, a TGI (NCI-H226 lung) of 3.81 µM and a GI50 (NCI-H23 lung) of 1390 nM. For the same compound, the TGI (NCI-H23 lung) was 3 µM, the GI50 (NCI-H460 lung) was 1700 nM and the TGI (NCI-H460 lung) was 3.82 µM. For the same compound, the GI50 (NCI-H522 lung) was 853 nM, the TGI (NCI-H522 lung) was 3.93 µM and the GI50 (NCI/ADR-RES ovarian) was 759 nM. The TGI (NCI/ADR-RES ovarian) was 4.44 µM, the GI50 (OVCAR-4 ovarian) was 1820 nM and the TGI (OVCAR-4 ovarian) was 3.8 µM. For the same compound, the GI50 (OVCAR-5 ovarian) was 1580 nM, the TGI (OVCAR-5 ovarian) was 3.25 µM and the GI50 (OVCAR-8 ovarian) was 827 nM. For the same compound, the TGI (OVCAR-8 ovarian) was 9.25 µM, the GI50 (PC-3 prostate) was 1600 nM and the TGI (PC-3 prostate) was 4.19 µM. It also gave a GI50 (RPMI-8226 leukemia) of 401 nM, a TGI (RPMI-8226 leukemia) of 3350 nM and a GI50 (RXF 393 renal) of 574 nM. The TGI (RXF 393 renal) was 1960 nM, the GI50 (SF-268 CNS) was 1650 nM and the TGI (SF-268 CNS) was 5.25 µM. It also gave a GI50 (SF-295 CNS) of 2460 nM, a TGI (SF-295 CNS) of 7.21 µM and a GI50 (SF-539 CNS) of 666 nM. The TGI (SF-539 CNS) was 1990 nM, the GI50 (SK-MEL-2 melanoma) was 2480 nM and the TGI (SK-MEL-2 melanoma) was 6.68 µM. For the same compound, the GI50 (SK-MEL-28 melanoma) was 1620 nM, the TGI (SK-MEL-28 melanoma) was 3.11 µM and the GI50 (SK-MEL-5 melanoma) was 1700 nM. It also gave a TGI (SK-MEL-5 melanoma) of 3.29 µM, a GI50 (SK-OV-3 ovarian) of 3.85 µM and a TGI (SK-OV-3 ovarian) of 16.9 µM. It also gave a GI50 (SN12C renal) of 1010 nM, a TGI (SN12C renal) of 2300 nM and a GI50 (SNB-19 CNS) of 1610 nM. For the same compound, the TGI (SNB-19 CNS) was 4.71 µM, the GI50 (SNB-75 CNS) was 490 nM and the TGI (SNB-75 CNS) was 17 µM. The GI50 (SR leukemia) was 239 nM, the TGI (SR leukemia) was 2160 nM and the GI50 (SW-620 colon) was 479 nM. It also gave a TGI (SW-620 colon) of 2280 nM, a GI50 (T-47D breast) of 2030 nM and a TGI (T-47D breast) of 5.11 µM. The GI50 (TK-10 renal) was 4.1 µM, the TGI (TK-10 renal) was 13.3 µM and the GI50 (U251 CNS) was 640 nM. It also gave a TGI (U251 CNS) of 2700 nM, a GI50 (UACC-257 melanoma) of 1630 nM and a TGI (UACC-257 melanoma) of 3.66 µM. For the same compound, the GI50 (UACC-62 melanoma) was 1010 nM, the TGI (UACC-62 melanoma) was 2360 nM and the GI50 (UO-31 renal) was 418 nM. For the same compound, the TGI (UO-31 renal) was 2260 nM.
`CNC(=O)c1c(NC(=O)c2cccc(C(F)(F)F)c2F)sc2c1CCC(=O)C2` gave a GI50 (ACHN renal) of 301 nM, a TGI (ACHN renal) of 1030 nM and a GI50 (BT-549 breast) of 406 nM. It also gave a TGI (BT-549 breast) of over 100000 nM, a GI50 (CCRF-CEM leukemia) of 109 nM and a TGI (CCRF-CEM leukemia) of over 100 µM. The GI50 (HL-60(TB) leukemia) was 275 nM, the TGI (HL-60(TB) leukemia) was over 100000 nM and the GI50 (HOP-62 NSCLC) was 777 nM. The TGI (HOP-62 NSCLC) was over 100 µM, the GI50 (HOP-92 NSCLC) was 208 nM and the TGI (HOP-92 NSCLC) was 636 nM. The GI50 (HS 578T breast) was 379 nM, the TGI (HS 578T breast) was over 100 µM and the GI50 (IGROV1 ovarian) was 483 nM. For the same compound, the TGI (IGROV1 ovarian) was over 100000 nM, the GI50 (K-562 leukemia) was 174 nM and the TGI (K-562 leukemia) was over 100 µM. It also gave a GI50 (LOX IMVI melanoma) of 466 nM, a TGI (LOX IMVI melanoma) of over 100 µM and a GI50 (MCF7 breast) of 283 nM. It also gave a TGI (MCF7 breast) of over 100000 nM, a GI50 (MOLT-4 leukemia) of 341 nM and a TGI (MOLT-4 leukemia) of over 100 µM. It also gave a GI50 (OVCAR-8 ovarian) of 349 nM, a TGI (OVCAR-8 ovarian) of over 100 µM and a GI50 (PC-3 prostate) of 110 nM. The TGI (PC-3 prostate) was over 100 µM, the GI50 (RPMI-8226 leukemia) was 141 nM and the TGI (RPMI-8226 leukemia) was 676 nM. The GI50 (RXF 393 renal) was 378 nM, the TGI (RXF 393 renal) was over 100000 nM and the GI50 (SF-268 CNS) was 357 nM. It also gave a TGI (SF-268 CNS) of over 100 µM, a GI50 (SN12C renal) of 305 nM and a TGI (SN12C renal) of over 100000 nM. It also gave a GI50 (SNB-19 CNS) of 361 nM, a TGI (SNB-19 CNS) of over 100 µM and a GI50 (SNB-75 CNS) of 163 nM. For the same compound, the TGI (SNB-75 CNS) was 0.794 µM, the GI50 (SR leukemia) was 112 nM and the TGI (SR leukemia) was over 100000 nM. For the same compound, the GI50 (U251 CNS) was 259 nM and the TGI (U251 CNS) was over 100000 nM.
